Results reported in US4539429A, “Substituted aminophenylalkyl ketones, their preparation and use” (Sterling Drug Inc., priority 1983, dated 1985).
Like-named read-outs stand apart in the source and are kept apart here.

Legend:
[1] = test system: SRS-A component of immunologically induced bronchoconstriction; experiment: Effect on the SRS-A component of immunologically induced bronchoconstriction in guinea pigs; assay type: in vivo, guinea pig
Procedure: The test was carried out according to the following procedure:
Two weeks after immunization with egg albumin, guinea pigs are prepared for bronchoconstriction determination. One hour prior to antigen challenge, each animal is dosed orally with indomethacin and chlorpheniramine. Animals are anesthetized with sodium pentobarbital, the trachea cannulated and the animal artifically respired. Arachidonic acid is administered intravenously prior to antigen challenge. The resulting bronchoconstriction is recorded by the standard lung overflow procedure and the peak increase in intratracheal pressure (mm Hg) over a 10 minute observation period is recorded. Compounds are evaluated for their ability to prevent the increased intratracheal pressure in an experimental group of animals as compared to the medicated (indomethacin+chlorpheniramine+arachidonic acid) control group. The results are expressed in terms of percent inhibition or as ED50 values (effective dose in 50% of the animals).

cyclooxygenase = target: T1, cyclooxygenase (Rattus norvegicus, UniProt Q63921); experiment: Inhibition of cyclooxygenase from rat basophilic leukemia (RBL-1) cells (formation of PGD2, C1); assay type: biochemical; conditions: cyclooxygenase product PGD2 (C1); for inhibition at 1 µM: read-out: % Inhibition of cyclooxygenase (Cl) formation
T1 construct: Single cell suspensions of RBL-1 cells are homogenized to obtain the microsomal fraction containing lipoxygenase and cyclooxygenase; endogenous in cells; host or cells: RBL-1 (rat basophilic leukemia) cells
T1 sequence (Q63921 27-602): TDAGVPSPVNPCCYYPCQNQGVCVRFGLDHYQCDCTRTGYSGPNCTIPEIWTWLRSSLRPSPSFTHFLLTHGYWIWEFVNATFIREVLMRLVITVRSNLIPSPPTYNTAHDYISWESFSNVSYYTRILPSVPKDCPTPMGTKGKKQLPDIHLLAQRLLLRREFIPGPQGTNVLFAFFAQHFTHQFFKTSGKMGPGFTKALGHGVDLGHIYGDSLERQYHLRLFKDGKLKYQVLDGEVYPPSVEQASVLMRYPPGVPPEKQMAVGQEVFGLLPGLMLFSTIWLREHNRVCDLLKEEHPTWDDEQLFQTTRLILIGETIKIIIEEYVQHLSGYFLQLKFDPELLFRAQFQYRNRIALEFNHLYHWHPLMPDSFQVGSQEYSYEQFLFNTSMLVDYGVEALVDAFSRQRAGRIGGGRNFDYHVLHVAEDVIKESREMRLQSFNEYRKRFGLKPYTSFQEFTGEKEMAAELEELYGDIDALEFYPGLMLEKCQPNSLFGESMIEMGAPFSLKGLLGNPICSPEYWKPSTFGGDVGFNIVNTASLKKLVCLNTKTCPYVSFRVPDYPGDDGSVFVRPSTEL
Procedure: (§1) The primary screening test used is a determination of the inhibition of lipoxygenase and cyclooxygenase derived from rat basophilic leukemia (RBL-1) cells. The test was carried out according to the following procedure:
(§2) Single cell suspensions of RBL-1 cells are homogenized to obtain the microsomal fraction containing lipoxygenase and cyclooxygenase. Test compounds are added to the enzyme-containing homogenate for a 5 min preincubation period at 37° C. prior to the additon of ^14 C-arachidonic acid substrate. Following incubation at 37° C. for 15 min, the reaction is stopped by the addition of 2M formic acid and the enzyme-substrate products are extracted into chloroform. An aliquot of the extract is evaporated to dryness, reconstituted in ether to 1/10 original volume, spotted on thin layer chromatography plates and chromatographed. The peak areas of radioactivity representing the products are located by scanning the plates. The quantity of products formed is estimated by measuring the height of the radioactivity peaks observed on the chromatographic scans. Alternatively, the areas of radioactivity are scraped from the plate and the ^14 C quantitated by scintillation counting.

lipoxygenase = target: T2, lipoxygenase (Rattus norvegicus, UniProt P12527); experiment: Inhibition of lipoxygenase from rat basophilic leukemia (RBL-1) cells (formation of L1 5,12-di-HETE and L2 5-HETE); assay type: biochemical
T2 construct: Single cell suspensions of RBL-1 cells are homogenized to obtain the microsomal fraction containing lipoxygenase and cyclooxygenase; endogenous in cells; host or cells: RBL-1 (rat basophilic leukemia) cells
T2 sequence (P12527 1-673): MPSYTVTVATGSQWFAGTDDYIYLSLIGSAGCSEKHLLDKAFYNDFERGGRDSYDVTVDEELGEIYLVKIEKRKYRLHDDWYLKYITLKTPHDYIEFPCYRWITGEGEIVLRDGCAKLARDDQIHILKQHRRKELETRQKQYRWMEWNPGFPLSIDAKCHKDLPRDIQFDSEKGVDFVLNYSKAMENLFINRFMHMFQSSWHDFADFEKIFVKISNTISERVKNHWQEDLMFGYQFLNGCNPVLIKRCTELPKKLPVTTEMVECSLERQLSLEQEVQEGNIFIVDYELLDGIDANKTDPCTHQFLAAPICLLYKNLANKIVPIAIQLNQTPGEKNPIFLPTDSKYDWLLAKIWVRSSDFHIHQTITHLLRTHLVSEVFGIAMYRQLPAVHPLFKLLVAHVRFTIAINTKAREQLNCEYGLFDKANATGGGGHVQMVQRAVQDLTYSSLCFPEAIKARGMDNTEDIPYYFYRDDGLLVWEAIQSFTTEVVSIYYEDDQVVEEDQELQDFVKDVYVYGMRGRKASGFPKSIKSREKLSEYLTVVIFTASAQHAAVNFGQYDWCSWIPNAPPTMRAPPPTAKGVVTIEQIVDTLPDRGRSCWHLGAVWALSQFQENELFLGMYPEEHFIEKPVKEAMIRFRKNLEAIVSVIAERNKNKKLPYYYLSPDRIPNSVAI
Procedure: as §1, §2

In the case of `COc1ccc(Nc2ccc(O)cc2)c(C(C)=O)c1` [Example 1c, 1-[2-(4-Hydroxyphenylamino)-5-methoxyphenyl]ethanone], the ED50 ([1]; Cavia porcellus, iv, indomethacin + chlorpheniramine pretreated, arachidonic acid i.v. before antigen challenge, read-out: In vivo Guinea Pig ED50) is reported as 2.7 mg/kg, the “In vivo Guinea Pig % inhib.” value ([1]; at 1 mg/kg orally, increased intratracheal pressure vs medicated control group) is reported as 52% and the inhibition at 1 µM (cyclooxygenase) is reported as 36%. The IC50 (cyclooxygenase) was > 1 µM, the IC50 (lipoxygenase) was 0.07 µM and the inhibition at 1 µM (lipoxygenase; read-out: % Inhibition of lipoxygenase (L1) formation) was 88%. The inhibition at 1 µM (lipoxygenase; read-out: % Inhibition of lipoxygenase (L2) formation) was 88%.
In the case of `CC(=O)c1ccccc1Nc1ccc(O)cc1` [Example 2c, 1-[2-(4-Hydroxyphenylamino)phenyl]ethanone], the inhibition at 1 µM (cyclooxygenase) is reported as 9%, the inhibition at 1 µM (lipoxygenase; 1 μM, L1 = 5,12-di-HETE, read-out: % Inhibition of lipoxygenase (L1) formation) is reported as 61% and the inhibition at 1 µM (lipoxygenase; 1 μM, L2 = 5-HETE, read-out: % Inhibition of lipoxygenase (L2) formation) is reported as 72%.
